Laboratory results as given in paper PMC8340127 (iScience, 2021).
Read-outs that look alike come from different tables or passages of the source. Residues, ends and D or L forms follow the SMILES beside them.

Legend:
neuroblastoma cells = settings: cited from earlier work
15N-Aβ40 [1] = biological target: T1, 15N-Aβ40 (Homo sapiens, UniProt P05067); test: biochemical; assay type: binding
T1 construct: Uniformly isotopically ^15N -labelled Amyloid-β1-40 (Aβ40); purchased AlexoTech AB, Umeå, Sweden AB-100-05
T1 sequence (P05067 672-711): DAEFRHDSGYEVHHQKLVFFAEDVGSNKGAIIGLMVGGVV

Aβ40 [2] = biological target: T2, Aβ40 (Homo sapiens, UniProt P05067); assay type: biochemical
T2 construct: Recombinant Amyloid-β1-40 (Aβ40) wild type peptide; purchased AlexoTech AB, Umeå, Sweden AB-100-10
T2 sequence (P05067 672-711): as above

Aβ40 [3] = biological target: T2, Aβ40; assay type: biochemical; remark: listed apart in the source
15N-Aβ40 [4] = biological target: T1, 15N-Aβ40; assay type: biochemical; settings: pH 7.35
[5] = pH 7.4
Aβ42 [6] = biological target: T3, Aβ42 (Homo sapiens, UniProt P05067); assay type: biochemical; settings: pH 8
T3 construct: Recombinant Amyloid-β1-42 (Aβ42) wild type peptide; purchased rPeptide, Watkinsville, USA A-1163-2
T3 sequence (P05067 672-713): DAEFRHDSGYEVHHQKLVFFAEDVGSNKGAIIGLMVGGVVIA

[7] = assay type: biochemical; settings: pH 7.4
Aβ42 [8] = biological target: T3, Aβ42; assay type: binding
Aβ42 [9] = biological target: T3, Aβ42; assay type: biochemical; settings: pH 7.8
[10] = assay type: biochemical; settings: pH 7.4; remark: listed apart in the source
Aβ42 [11] = biological target: T3, Aβ42; assay type: binding; settings: pH 8.3
Aβ42 [12] = biological target: T3, Aβ42; assay type: biochemical
Aβ42 [13] = biological target: T3, Aβ42; assay type: biochemical; settings: pH 7.3

For `CC[C@H](C)[C@H](NC(=O)[C@H](CC(C)C)NC(=O)[C@H](CC(=O)O)NC(=O)[C@H](CCCCN)NC(=O)[C@@H](NC(=O)[C@H](CCCNC(=N)N)NC(=O)[C@H](CC(C)C)NC(=O)[C@@H](N)CCSC)[C@@H](C)O)C(=O)N[C@@H](Cc1c[nH]c2ccccc12)C(=O)N[C@H](C(=O)N[C@@H](CC(C)C)C(=O)N[C@@H](Cc1ccccc1)C(=O)N[C@@H](Cc1ccccc1)C(=O)N[C@@H](CC(C)C)C(=O)NCC(=O)N[C@H](C(=O)N[C@@H](C)C(=O)N[C@H](C(=O)N[C@@H](CO)C(=O)N[C@@H](CCCCN)C(=O)N[C@@H](CCCCN)C(=O)N[C@@H](CCCNC(=N)N)C(=O)N1CCC[C@H]1C(=O)N[C@@H](CCCCN)C(=O)N1CCC[C@H]1C(N)=O)C(C)C)[C@@H](C)O)[C@@H](C)O` [NCAM-PrP] (H-MLRTKDLIWTLFFLGTAVSKKRPKP-NH2), the “effect on Aβ-induced cytotoxicity in cells” value (neuroblastoma cells) is given as “attenuates Aβ-induced cytotoxicity in cells”, the toxicity (neuroblastoma cells) is given as “not toxic at the concentrations studied” and the Kd (15N-Aβ40 [1]) is given as about 160 µM.
With “Aβ40: Recombinant Amyloid-β1-40 (Aβ40) wild type peptide” the “aggregation half-time τ½, Aβ40 alone + NaF” value (Aβ40 [2]) was 2 h, the “aggregation half-time τ½, Aβ40 alone” value (Aβ40 [2]; pH 7.3) was “approximately 6 h” and the “secondary structure by FTIR” value (Aβ40 [3]) was “both random coil and β-sheet conformations”.
In the case of “Aβ: Amyloid-β (Aβ) peptide, 40 or 42 residues long; in b38 15N-Aβ40”, the “aggregation of Aβ40 alone (HSQC signal intensity)” value (15N-Aβ40 [4]) is reported as “started to aggregate during the incubation” and the “secondary structure in SDS micelles” value [5] is reported as “α-helical secondary structures”.
With “DAEFR5HDSGY10EVHHQ15KLVFF20AEDVG25SNKGA30IIGLM35VGGVV40IA [Aβ42, Recombinant Amyloid-β1-42 (Aβ42) wild type peptide]” the “aggregation half-time τ½, Aβ42 alone” value (Aβ42 [6]) was “about 4 h”, the “aggregation half-time τ½, Aβ42 alone + NaF” value (Aβ42 [6]) was “approximately 2.5 h” and the “calcein leakage by monomeric Aβ42” value [7] was “around 10%”. The “share of tetramer in the Aβ42 oligomeric population” value (Aβ42 [8]) was “about 50%”, the “effect of 10% pre-formed seeds on Aβ42 amyloid formation, no NCAM-PrP” value (Aβ42 [9]) was “the amyloid formation was enhanced” and the “calcein leakage by monomeric Aβ42” value [10] was “around 10%”. For the same compound, the “oligomeric state of Aβ42, aqueous” value (Aβ42 [11]) was “mostly monomeric peptide with a rich population of small and heterogeneous oligomers”, the “fibril diameter by AFM, Aβ42 alone” value (Aβ42 [12]) was “approximately 10 nm” and the “time at which normalized CD signals at 198 and 220 nm meet, Aβ42 alone” value (Aβ42 [13]) was “approximately one”. The “β-sheet formation of Aβ42 alone” value (Aβ42 [13]) was “transitioned into a mostly β-sheet state within 4 h”.
